The NIST ThermoML archive (doi:10.1021/je900852t)
Numbers after ± are expanded uncertainties.

Conditions: Crystal; visual observation

- Normal melting temperature: 215 ± 1 °C
Structure (SMILES): c1ccc2cc3ccccc3cc2c1 [anthracene]
